In patent US20090209491A1, “Lactams as conformationally constrained peptidomimetic inhibitors” (Trustees of Tufts College, priority 2004, published 2009):

target: DPIV (Homo sapiens, UniProt P27487); assay: DPIV Inhibition Assay; format: biochemical; conditions: pH 8; substrate L-alanyl-L-proline-para-nitroanilide; inhibitor stood in pH 8 buffer overnight; absorbance 410 nm
Protocol: The inhibitor solution was prepared by dissolving 3-5 mg of inhibitor in pH 2 solution (0.01 N HCl), such that the concentration of the solution was equal to 1 mg/10 μL. A 10 μL sample of this solution was then added to 990 μL of pH 8 buffer (0.1 M HEPES, 0.14 M NaCl), and the solution was allowed to stand at room temperature overnight.
The enzyme solution was prepared by diluting 20 μL of DPIV (concentration 2.5 μM) into 40 mL of pH 8 buffer.
The substrate solution was prepared by dissolving 2.0 mg of L-alanyl-L-proline-para-nitroanilide into 20 mL of pH 8 buffer.
250 μL of enzyme solution was added to well #B1 to #H1, #A2 to #H2, and #A3 to #H3 of a 96 well plate, while well #Al received 250 μL of pH 8 buffer instead of enzyme solution. 90 μL of pH 8 buffer was then added to column 5 (from well #A5 to #H5).
A 1:10 dilution was then performed by adding inhibitor solution to #A5 and the solution was mixed well before transferring 10 μL of this solution from #A5 to #B5. The solution in #B5 was then mixed well before transferring 10 μL of this solution from #B5 to #C5. The solution in #C5 was then mixed well before transferring 10 μL of this solution from #C5 to #D5. The solution in #D5 was then mixed well before transferring 10 μL of this solution from #D5 to #E5. The solution in #E5 was then mixed well before transferring 10 μL of this solution from #E5 to #F5. The solution in #F5 was then mixed well before transferring 10 μL of this solution from #F5 to #G5. The solution in #G5 was then mixed well before transferring 10 μL of this solution from #G5 to #H5.
A 30 μL aliquot was then transferred from #H5 to #H3 for row H, and the contents were mixed well. The analogous procedure was repeated for rows G, F, E, D, C, B, and A sequentially. The plate was then shaken on a plate shaker for 5 minutes before allowing the plate to incubate at room temperature for an additional 5 minutes.
Once the plate had been allowed to incubate, 30 μL of substrate was added to each well except well #A1. The plate was then placed on a plate shaker for 5 minutes before allowing the plate to incubate at room temperature for 25 minutes. The absorbance was then immediately read at a wavelength of 410 nm.

DPIV, sequence (P27487 whole entry): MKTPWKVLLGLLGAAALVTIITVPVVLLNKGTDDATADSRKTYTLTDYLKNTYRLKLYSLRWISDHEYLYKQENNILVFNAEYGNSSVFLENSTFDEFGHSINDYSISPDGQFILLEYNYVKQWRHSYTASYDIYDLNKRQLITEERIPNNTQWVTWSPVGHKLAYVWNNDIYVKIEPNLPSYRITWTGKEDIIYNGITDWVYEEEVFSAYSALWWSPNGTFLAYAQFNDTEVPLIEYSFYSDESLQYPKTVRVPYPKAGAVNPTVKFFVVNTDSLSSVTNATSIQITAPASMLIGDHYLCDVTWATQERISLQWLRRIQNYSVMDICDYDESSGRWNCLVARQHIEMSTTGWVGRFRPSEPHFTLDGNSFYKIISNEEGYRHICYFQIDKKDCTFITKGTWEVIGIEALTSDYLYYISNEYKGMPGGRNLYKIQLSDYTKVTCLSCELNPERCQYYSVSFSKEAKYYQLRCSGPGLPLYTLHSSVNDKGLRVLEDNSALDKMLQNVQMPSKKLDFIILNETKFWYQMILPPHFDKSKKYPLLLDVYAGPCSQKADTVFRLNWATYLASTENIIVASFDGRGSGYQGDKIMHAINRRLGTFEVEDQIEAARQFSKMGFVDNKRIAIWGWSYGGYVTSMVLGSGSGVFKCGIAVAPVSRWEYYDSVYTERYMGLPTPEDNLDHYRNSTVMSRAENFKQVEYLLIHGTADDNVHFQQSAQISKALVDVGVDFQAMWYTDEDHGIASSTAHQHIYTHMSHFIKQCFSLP

Compound | IC50 [nM]
C[C@H](C#N)N1CCC(N)C1=O (stereo partly drawn) [A] | 11000
C[C@@H](B(O)O)N1CCC(N)C1=O (stereo partly drawn) [B] | 40
C[C@H](B(O)O)N1CCC(N)C1=O (stereo partly drawn) [C] | 340
CC[C@H](B(O)O)N1CC[C@](N)(CC)C1=O [Compound I] | 25
CC(B(O)O)N1CCC(N)C1=O (stereo not drawn) [D] | 34
CC(B(O)O)N1CCC(C)(N)C1=O (stereo not drawn) [E] | 23
C[C@@H](B(O)O)N1CC[C@](C)(N)C1=O [F] | 69000
C[C@@H](B(O)O)N1CC[C@@](C)(N)C1=O [G] | 6.7
CCCC[C@@]1(N)CCN([C@@H](C)B(O)O)C1=O [J] | 1.9
C[C@@H](B(O)O)N1CC[C@](N)(CC(=O)O)C1=O [K] | 36
C[C@@H](B(O)O)N1CC[C@](N)(Cc2ccccc2)C1=O [M] | 2.6
CC[C@@H](B(O)O)N1CC[C@](N)(Cc2ccccc2)C1=O [N] | 3
CN[C@]1(Cc2ccccc2)CCN([C@@H](C)B(O)O)C1=O [O] | 630
C[C@@H](B(O)O)N1CC[C@](N)(Cc2cccc3ccccc23)C1=O [P] | 2.1
C[C@@H](B(O)O)N1CC[C@]2(CCCN2)C1=O [Q] | 9.9
